Measurements: patent publication US20230058623A1, “NOVEL HETEROARYL-TRIAZOLE COMPOUNDS AS PESTICIDES” (Bayer Aktiengesellschaft, priority 2019, published 2023)

Columns and labels:
Assay type in all cases: in vivo
[1] = test system: green peach aphid (Myzus persicae); assay: Myzus persicae spray test; conditions: foliar, 120 h, after 5 days, Chinese cabbage leaf disks; for mortality at 100 g/ha: application rate 100 g/ha, read-out: activity (mortality)
In short: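 Percent kill was recorded 5 days after spraying. Test solutions, prepared with solvent and diluted in 1000 ppm emulsifier water, were applied to Brassica pekinensis leaf disks carrying mixed-instar green peach aphids.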

[2] = test system: Rhipicephalus (Boophilus) microplus larvae (strain Parkhurst, resistant against synthetic pyrethroids); assay: Rhipicephalus (Boophilus) microplus in-vitro contact test, larval cattle tick; conditions: after 48 hours, read-out: activity (efficacy: larvae dead or moribund); for pest or weed control at 1 µg/cm2, 100 g/ha: application rate 1 μg/cm^2 (=100 g/ha); for pest or weed control at 5 µg/cm2, 500 g/ha: application rate 5 μg/cm^2 (=500 g/ha)
In short: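 Pyrethroid-resistant Parkhurst larvae, 20–50 per tube, were kept 48 h at 27 °C and 85% relative humidity in glass tubes whose inner walls carried a dried acetone film of compound (900 ppm giving 5 μg/cm^2). Dead or moribund larvae, judged by loss of negative geotactic behavior, set percent efficacy.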

[3] = test system: adult mosquitoes Anopheles funestus strain FUMOZ-R; assay: Anopheles funestus test (ANPHFU surface treatment & contact assay); conditions: 24 hours after contact, read-out: efficacy (mortality); for mortality at 20 mg/m2: surface concentration 20 mg/m^2, exposure 30 minutes; for mortality at 4 mg/m2: surface concentration 4 mg/m^2, exposure 30 minutes
Protocol: Anopheles funestus Test (ANPHFU Surface Treatment & Contact Assay)
(§1) Solvent: Aceton+2000 ppm rapeseed oil methyl ester (RME)
(§2) In order to produce a sufficient, active ingredient containing solution it is necessary to solve the test compound in the solvent-mix (acetone at 2 mg/ml/RME 2000 ppm). This solution is pipetted onto a glazed tile and after evaporation of the acetone, adult mosquitoes of the species Anopheles funestus strain FUMOZ-R (Hunt et al., Med. Vet. Entomol. 2005 September; 19(3): 271-275) are placed onto the dried surface. The exposure time is 30 minutes.
(§3) Mortality in percent (%) is determined 24 hours after contact of the insects to the treated surface. 100% mortality means that all tested insects are dead, whereas 0% means that no insect died.

[4] = test system: adult cat fleas (Ctenocephalides felis); assay: Ctenocephalides felis in-vitro contact test, adult cat flea; conditions: application rate 5 μg/cm^2 (=500 g/ha), after 48 hours, read-out: activity (efficacy: fleas dead or moribund)
In short: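 After 48 h of room-temperature exposure in tubes whose walls carried dried compound residue (5 μg/cm^2, from 900 ppm acetone solution), adult cat fleas (5-10 per tube) were heat-challenged at 45-50° C up to 5 min. Fleas unable to climb away were counted dead or moribund, expressed as % efficacy.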

[5] = test system: adult brown dog ticks (Rhipicephalus sanguineus); assay: Rhipicephalus sanguineus in-vitro contact test, adult brown dog ticks; conditions: application rate 5 μg/cm^2 (=500 g/ha), after 48 hours, read-out: activity (efficacy: ticks dead or moribund)
In short: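 Contact exposure: dried compound film inside glass tubes, dose 5 μg/cm^2 at 900 ppm, 5-10 adults per tube at room temperature. Scored at 48 h via a heat-escape test on a 45-50° C plate for up to 5 min.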

[6] = test system: brown planthopper (Nilaparvata lugens); assay: Nilaparvata lugens spray test; conditions: 96 h, after 4 days, rice plants; for mortality at 100 g/ha: application rate 100 g/ha; for mortality at 500 g/ha: application rate 500 g/ha
In short: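 Rice plants sprayed with compound diluted in water containing 1000 ppm emulsifier, then infested with brown planthopper. Mortality (%) scored after 4 days, 100% meaning all insects killed.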

[7] = test system: cattle ticks (Rhipicephalus microplus) strain Parkhurst, SP-resistant; assay: Rhipicephalus (Boophilus) microplus dip test; conditions: 168 h, application rate 100 ppm, egg deposition after 7 days, read-out: activity (efficacy: infertile eggs)
Protocol: Rhipicephalus (Boophilus) microplus—Dip Test
Test animal: cattle ticks (Rhipicephalus microplus) strain Parkhurst, SP-resistant
Solvent: dimethyl sulfoxide
To produce a suitable preparation of active compound, 10 mg of active compound are dissolved in 0.5 mL solvent, and the concentrate is diluted with water to the desired concentration.
This compound solution is pipetted into tubes. 8-10 engorged, adult, female cattle ticks (Rhipicephalus microplus) are placed in perforated tubes. These tubes are immersed in the aqueous compound solution until the ticks are completely moistened. After the liquid has drained off, the ticks are transferred to a filter paper in a plastic tray and stored in a climate chamber.
After 7 days egg deposition of fertile eggs is monitored. Eggs where fertility is not visible are stored in a climate chamber till hatching after about 42 days. An efficacy of 100% means all eggs are infertile; 0% means all eggs are fertile.

[8] = test system: adult mosquitoes Culex quinquefasciatus strain P00; assay: Culex quinquefasciatus test (CULXFA surface treatment & contact assay); conditions: 24 hours after contact, read-out: efficacy (mortality); for mortality at 20 mg/m2: surface concentration 20 mg/m^2, exposure 30 minutes
Protocol: Culex quinquefasciatus Test (CULXFA Surface Treatment & Contact Assay)
as §1
as §2, with “2 000” for “2000”, “Culex quinquefasciatus” for “Anopheles funestus”, “P00” for “FUMOZ-R (Hunt et al., Med. Vet. Entomol. 2005 September; 19(3): 271-275)”
as §3

Row | Compound | mortality at 100 g/ha [1] [%] | mortality at 500 g/ha ([1]; application rate 500 g/ha) [%] | pest or weed control at 1 µg/cm2, 100 g/ha [2] [%] | pest or weed control at 5 µg/cm2, 500 g/ha [2] [%] | mortality at 20 mg/m2 [3] [%] | pest or weed control at 5 µg/cm2 [4] [%] | pest or weed control at 5 µg/cm2, 500 g/ha [5] [%] | mortality at 100 g/ha [6] [%] | mortality at 500 g/ha [6] [%] | pest or weed control at 100 ppm [7] [%] | mortality at 4 mg/m2 [3] [%] | mortality at 20 mg/m2 [8] [%] | mortality at 4 mg/m2 ([8]; surface concentration 4 mg/m^2, exposure 30 minutes) [%]
1 | C[C@H](NC(=O)c1cc(C(F)(F)F)cc(C(F)(F)F)c1)c1ncnn1-c1ccc(C(=O)N2CCOCC2)cn1 [Example I-2] | 100 | 100 | 100 | 100 | 80 to 100 | 100 | 100 | 90 | 100 | 100 | – | – | –
2 | Cc1nc([C@H](C)NC(=O)c2cc(C(F)(F)F)cc(C(F)(F)F)c2)n(-c2ncc(C(=O)N3CCOCC3)s2)n1 [Example I-4] | 90 | – | 100 | 100 | – | 80 | 100 | – | – | – | – | – | –
3 | CC1CN(C(=O)c2ccc(-n3ncnc3[C@H](C)NC(=O)c3cc(C(F)(F)F)cc(C(F)(F)F)c3)nc2)CC(C)O1 (stereo partly drawn) [Example I-5] | 100 | – | 100 | 100 | 80 to 100 | 100 | 100 | 90 | – | 100 | – | – | –
4 | COC1CCCN(C(=O)c2ccc(-n3ncnc3[C@H](C)NC(=O)c3cc(C(F)(F)F)cc(C(F)(F)F)c3)nc2)C1 (stereo partly drawn) [Example I-8] | 90 | – | 100 | 100 | – | 100 | 100 | 90 | – | 80 | – | – | –
5 | Cc1nc([C@H](C)NC(=O)c2cc(C(F)(F)F)cc(C(F)(F)F)c2)n(-c2ccc(C(=O)N3CCOCC3)cn2)n1 [Example I-9, N-[(1S)-1-{3-methyl-1-[5-(morpholin-4-ylcarbonyl)pyridin-2-yl]-1H-1,2,4-triazol-5-yl}ethyl]-3,5-bis(trifluoromethyl)benzamide] | 100 | – | 100 | 100 | 80 to 100 | 100 | 100 | 100 | – | 100 | – | – | –
6 | C[C@H](NC(=O)c1cc(C(F)(F)F)cc(C(F)(F)F)c1)c1ncnn1-c1ccc(C(=O)N2CCCC2)cn1 [Example I-11] | 90 | – | 100 | 100 | – | 100 | 100 | – | – | – | – | – | –
7 | COC1CN(C(=O)c2ccc(-n3ncnc3[C@H](C)NC(=O)c3cc(C(F)(F)F)cc(C(F)(F)F)c3)nc2)C1 [Example I-15] | 90 | – | 100 | 100 | – | 100 | 100 | – | – | 100 | – | – | –
8 | Cc1nc([C@H](C)NC(=O)c2cc(Cl)cc(C(F)(F)F)c2)n(-c2ccc(C(=O)N3CC(C)OC(C)C3)cn2)n1 (stereo partly drawn) [Example I-29] | 90 | – | 100 | 100 | – | 100 | 100 | – | – | – | – | – | –
9 | C[C@@H]1CN(C(=O)c2ccc(-n3ncnc3[C@H](C)NC(=O)c3cc(Cl)cc(C(F)(F)F)c3)nc2)C[C@H](C)O1 [Example I-31] | 100 | – | 100 | 100 | – | 100 | 100 | – | – | – | – | – | –
10 | C[C@H](NC(=O)c1cc(Cl)cc(C(F)(F)F)c1)c1ncnn1-c1ccc(C(=O)N2CCS(=O)(=O)CC2)cn1 [Example I-35] | 90 | – | 100 | 100 | 80 to 100 | 100 | 100 | 100 | – | – | – | – | –
11 | C[C@H](NC(=O)c1cc(Cl)cc(C(F)(F)F)c1)c1ncnn1-c1ccc(C(=O)N2CCSCC2)cn1 [Example I-36] | 100 | – | 100 | 100 | 80 to 100 | 100 | 100 | 100 | – | – | 80 to 100 | – | –
12 | Cc1nc([C@H](C)NC(=O)c2cc(C(F)(F)F)cc(C(F)(F)F)c2)n(-c2ccc(C(=O)N3C[C@@H](C)O[C@@H](C)C3)cn2)n1 [Example I-45] | 100 | – | 100 | 100 | – | 100 | 100 | – | – | 80 | – | – | –
13 | C[C@@H]1CN(C(=O)c2ccc(-n3ncnc3[C@H](C)NC(=O)c3cc(C(F)(F)F)cc(C(F)(F)F)c3)nc2)C[C@@H](C)O1 [Example I-46] | 90 | – | 100 | 100 | – | 100 | 100 | – | – | 100 | – | – | –
14 | C[C@@H]1CN(C(=O)c2ccc(-n3ncnc3[C@H](C)NC(=O)c3cc(C(F)(F)F)cc(C(F)(F)F)c3)nc2)CCO1 [Example I-69] | 90 | – | 100 | 100 | 80 to 100 | 100 | 100 | – | – | – | 80 to 100 | 80 to 100 | –
15 | C[C@H](NC(=O)c1cc(C(F)(F)F)cc(C(F)(F)F)c1)c1ncnn1-c1ccc(C(=O)N2CCS(=O)(=O)CC2)cn1 [Example I-75] | 100 | – | 100 | 100 | 80 to 100 | 100 | 100 | – | 100 | – | 80 to 100 | 80 to 100 | 80 to 100
16 | C[C@H](NC(=O)c1cc(C(F)(F)F)cc(C(F)(F)F)c1)c1ncnn1-c1ccc(C(=O)N2C[C@H](C)O[C@@H](C)C2)cn1 [Example I-94] | 100 | – | 100 | 100 | – | 100 | 100 | 90 | – | 100 | – | – | –
17 | C[C@@H]1CN(C(=O)c2ccc(-n3ncnc3[C@H](C)NC(=O)c3cc(OC(F)(F)F)cc(C4CC4)c3)nc2)C[C@H](C)O1 [Example I-114] | 100 | – | 100 | 100 | – | 100 | 100 | – | – | 100 | – | – | –
